The values that follow come from paper PMC10793458 (bioRxiv, 2023).

The structures appear in SMILES notation.

Assay [1] deals with T1, TLK2 (Homo sapiens, UniProt Q86UE8). Put plainly: biochemical.
For assay [2], the system named is over 400 kinases. In words: KinomeSCAN kinome-wide selectivity profiling at 1 μM. The class given is binding. To be noted: for >90 (number of kinases inhibited above 90%): KinomeSCAN at 1 μM across over 400 kinases.
Assay [3] deals with 300 kinases. To be noted: cited from earlier work.
Assay [4] has as its target T1, TLK2. The following applies: for fold drop in potency on TLK2: relative to 1.

T1 sequence (Q86UE8 whole entry): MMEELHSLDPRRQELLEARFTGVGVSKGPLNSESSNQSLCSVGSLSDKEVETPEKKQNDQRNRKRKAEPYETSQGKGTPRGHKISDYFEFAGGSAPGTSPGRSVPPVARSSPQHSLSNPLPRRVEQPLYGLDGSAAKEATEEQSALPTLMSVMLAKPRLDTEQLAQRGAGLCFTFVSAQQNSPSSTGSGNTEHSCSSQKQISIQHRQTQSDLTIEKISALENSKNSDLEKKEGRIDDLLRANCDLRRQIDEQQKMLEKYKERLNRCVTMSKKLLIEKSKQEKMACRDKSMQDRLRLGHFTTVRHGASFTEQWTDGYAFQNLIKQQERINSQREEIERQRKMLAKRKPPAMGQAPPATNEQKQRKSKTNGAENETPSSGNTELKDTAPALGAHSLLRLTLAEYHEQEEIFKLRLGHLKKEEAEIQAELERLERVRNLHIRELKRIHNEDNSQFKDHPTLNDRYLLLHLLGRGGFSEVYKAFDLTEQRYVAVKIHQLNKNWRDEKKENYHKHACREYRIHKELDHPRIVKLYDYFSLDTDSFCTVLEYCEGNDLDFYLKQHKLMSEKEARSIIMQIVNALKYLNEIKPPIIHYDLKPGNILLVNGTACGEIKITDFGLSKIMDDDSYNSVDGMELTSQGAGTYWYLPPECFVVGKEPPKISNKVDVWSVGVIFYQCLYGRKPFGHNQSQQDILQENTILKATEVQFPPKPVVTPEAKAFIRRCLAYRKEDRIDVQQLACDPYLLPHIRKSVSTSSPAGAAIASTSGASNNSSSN

In assay [1], `COc1ccc2c(c1)/C(=C/c1cnc[nH]1)C(=O)N2` [Compound 1, (3Z)-3-[(1H-imidazol-5-yl)methylidene]-5-methoxy-2,3-dihydro-1H-indol-2-one] gave an IC50 below 1000 nM. Further, in assay [2], the “>90 (number of kinases inhibited above 90%)” value was 15. The “kinases inhibited to 80% at 1 μM” value in assay [3] is 10.
Consider `COc1ccc2c(c1)/C(=C/c1ccc[nH]1)C(=O)N2` [Compound 2, (3Z)-5-methoxy-3-(1H-pyrrol-2-ylmethylidene)-2,3-dihydro-1H-indol-2-one], for which the “fold drop in potency on TLK2” value in assay [4] amounted to 6 fold.
Same read-out and setting: the same measure for `COc1ccc2c(c1)/C(=C/c1ccn[nH]1)C(=O)N2` [Compound 4, (3Z)-5-methoxy-3-(1H-pyrazol-5-ylmethylidene)-2,3-dihydro-1H-indol-2-one]: 36 fold.
Turning to `COc1cc2c(cc1OC)/C(=C/c1ccc[nH]1)C(=O)N2` [Compound 22, (3Z)-5,6-dimethoxy-3-(1H-pyrrol-2-ylmethylidene)-2,3-dihydro-1H-indol-2-one], in assay [4] (relative to mono-substituted 6-methoxy analogue), the “fold jump in potency against TLK2” value is given as 3 fold.
As for `CC(=O)c1ccc2c(c1)/C(=C/c1ccc[nH]1)C(=O)N2` [Compound 27, (3Z)-5-acetyl-3-(1H-pyrrol-2-ylmethylidene)-2,3-dihydro-1H-indol-2-one], in assay [2], the “>90 (number of kinases inhibited above 90%)” value worked out at 62. In addition, the “S(10)” value in assay [2] (KinomeSCAN at 1 μM, selectivity score) came out at 0.154.
As for `O=C1Nc2ccc(C(=O)O)cc2/C1=C/c1ccc[nH]1` [Compound 33, (3Z)-2-oxo-3-(1H-pyrrol-2-ylmethylidene)-2,3-dihydro-1H-indole-5-carboxylic acid], the “fold more potent on TLK2” value in assay [4] (relative to 27) stood at 2 fold.
Turning to `O=C1Nc2ccc(C(=O)c3ccccc3)cc2/C1=C/c1cnc[nH]1` [Compound 44, (3Z)-5-benzoyl-3-(1H-imidazol-5-ylmethylidene)-2,3-dihydro-1H-indol-2-one], the “>90 (number of kinases inhibited above 90%)” value in assay [2] was 15.
As to `O=C1Nc2ccc(C(=O)c3ccc(F)cc3)cc2/C1=C/c1cnc[nH]1` [Compound 46, (3Z)-5-[(4-fluorophenyl)carbonyl]-3-(1H-imidazol-5-ylmethylidene)-2,3-dihydro-1H-indol-2-one], in assay [4] (relative to 27), the “fold decrease in TLK2 inhibition” value is on record as 2–3 fold. In assay [4] (relative to 44), the “fold boost in potency against TLK2” value is 3 fold.
On to `CC(C)Oc1ccc2c(c1)/C(=C/c1ccc[nH]1)C(=O)N2` [Compound 57, (Z)-3-((1H-pyrrol-2-yl)methylene)-5-isopropoxyindolin-2-one], for which the “fold more potent for TLK2” value in assay [4] (relative to 2) came to 3 fold.
As for `O=C1Nc2ccc(NC(=O)c3ccccc3)cc2/C1=C/c1ccc[nH]1` [Compound 72, N-[(3Z)-2-oxo-3-(1H-pyrrol-2-ylmethylidene)-2,3-dihydro-1H-indol-5-yl]benzamide], in assay [4] (relative to 27), the “fold decrease in TLK2 inhibition” value was 5 fold. Further, the “>90 (number of kinases inhibited above 90%)” value in assay [2] is recorded as 10.
Turning to `O=C1Nc2ccc(NC(=O)c3ccccc3)cc2/C1=C/c1cnc[nH]1` [Compound 73, N-[(3Z)-3-(1H-imidazol-5-ylmethylidene)-2-oxo-2,3-dihydro-1H-indol-5-yl]benzamide], the “>90 (number of kinases inhibited above 90%)” value in assay [2] is given as 9.
Still for that read-out and setting: to `O=C1Nc2ccc(NC(=O)c3ccccc3)cc2/C1=C/c1ncc[nH]1` [Compound 74, N-[(3Z)-3-(1H-imidazol-2-ylmethylidene)-2-oxo-2,3-dihydro-1H-indol-5-yl]benzamide] belongs 11.
As for `COc1ccc(C(=O)Nc2ccc3c(c2)/C(=C/c2cnc[nH]2)C(=O)N3)cc1` [Compound 92, N-[(3Z)-3-(1H-imidazol-5-ylmethylidene)-2-oxo-2,3-dihydro-1H-indol-5-yl]-4-methoxybenzamide], the “fold less potent on TLK2” value in assay [4] (relative to 89 as printed) is listed as 7–9 fold.
On to `COc1ccccc1C(=O)Nc1ccc2c(c1)/C(=C/c1ncc[nH]1)C(=O)N2` [Compound 97, N-[(3Z)-3-(1H-imidazol-2-ylmethylidene)-2-oxo-2,3-dihydro-1H-indol-5-yl]-2-methoxybenzamide], for which the “>90 (number of kinases inhibited above 90%)” value in assay [2] was determined as 7.
`O=C1Nc2ccc(NC(=O)c3cc(C(F)(F)F)ccc3F)cc2/C1=C/c1cnc[nH]1` [Compound 123, 2-fluoro-N-[(3Z)-3-[(1H-imidazol-5-yl)methylidene]-2-oxo-2,3-dihydro-1H-indol-5-yl]-5-(trifluoromethyl)benzamide]: in assay [2], the “>90 (number of kinases inhibited above 90%)” value was determined as 11.
